According to patent publication US6458781B1, “Substituted diarylalkyl amides as calcium channel antagonists” (priority 1998, dated 2002):
Where a name gives a salt, the structure may show the parent alone. Read-outs that look alike come from different tables or passages of the source.

What was measured:
[1] = molecular target: T1, N-type calcium channels in IMR-32 cells (Homo sapiens, UniProt Q00975); test: N-type Ca2+ channel blocking potency in IMR-32 cells using Indo-1; type: cell-based; conditions: for IC50: IMR-32 cells, estimated from two data points, read-out: IMR32 IC50 (estimated IC50 values based on two data points); for inhibition at 1 µM / inhibition at 10 µM: IMR-32, IMR-32 cells; for inhibition at 1 µM: read-out: IMR32 % blockage at 1 μM; for inhibition at 10 µM: read-out: IMR32 % blockage at 10 μM
T1 construct: host or cells: IMR-32 cells differentiated with dibutyryl cAMP and bromodeoxyuridine
How it was run: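 Differentiated IMR-32 cells loaded with Indo-1 AM were preincubated with compound and 5 μM nitrendipine (L-type block) for 10 min at 30° C in HEPES/Tris pH 7.4 HBSS with 0.5% BSA. Cells were depolarized with KCl/CaCl2, and the 400/490 nm emission ratio rise over basal was measured. IC50 came from a four-parameter logistic fit.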

[2] = test system: sound-induced tonic convulsions in DBA/2 mice; test: Audiogenic seizure model in DBA/2 mice; type: in vivo; conditions: Mus musculus, protected/tested, read-out: Number of Mice Protected From Tonic Convulsions (converted); for responders at 30 mg/kg: 30 mg/Kg IV; for responders at 10 mg/kg: 10 mg/Kg IV
Protocol: Audiogenic Seizure Model in DBA/2 Mice
A compound of the present invention was dissolved in water using 10% (weight/volume) Emulphor (GAF Corp., Wayne, N.J.) surfactant. Substances were administered by intravenous injection into the retro-orbital venous sinus of male mice (3-4 weeks old, Jackson Laboratories, Bar Harbour, Me.). All testing was preformed 15 minutes or 45 minutes after drug injection. Immediately before anticonvulsant testing, mice were placed upon a wire mesh, 4 inches square suspended from a steel rod. The square was slowly inverted through 180 degrees and mice observed for 30 seconds. Any mouse falling from the wire mesh was scored as ataxic.
Mice were placed into an enclosed acrylic plastic chamber (21 cm height, approximately 30 cm diameter) with a high-frequency speaker (4 cm diameter) in the center of the top lid. An audio signal generator (Protek model B-810) was used to produce a continuous sinusoidal tone that Was swept linearly in frequency between 8 kHz and 16 kHz once each 10 msec. The average sound pressure level (SPL) during stimulation was approximately 100 dB at the floor of the chamber. Mice were placed within the chamber and allowed to acclimatize for 1 minute. DBA/2 mice in the vehicle-treated group responded to the sound stimulus (applied until tonic extension occurred, or for a maximum of 60 sec) with a characteristic seizure sequence consisting of wild running followed by clonic seizures, and later by tonic extension, and finally by respiratory arrest and death in 80% or more of the mice. In vehicle-treated mice, the entire sequence of seizures to respiratory arrest lasts approximately 15-20 seconds.
The incidence of all the seizure phases in the drug-treated and vehicle-treated mice was recorded, and the occurrence of tonic seizures were used for calculating anticonvulsant ED50 values by probit analysis. Mice were used only once for testing at each time and dose point.

[3] = molecular target: T2, L-type calcium channels in A10 cells (Rattus norvegicus, UniProt P22002); test: L-type Ca2+ channel blocking potency in A10 cells (FLIPR); type: cell-based; conditions: read-out: FLPA10 IC50
T2 construct: which endogenously expresses L-type calcium channels; host or cells: A10 rat embryonic thoracic aorta smooth muscle cells
T2 sequence (P22002 whole entry): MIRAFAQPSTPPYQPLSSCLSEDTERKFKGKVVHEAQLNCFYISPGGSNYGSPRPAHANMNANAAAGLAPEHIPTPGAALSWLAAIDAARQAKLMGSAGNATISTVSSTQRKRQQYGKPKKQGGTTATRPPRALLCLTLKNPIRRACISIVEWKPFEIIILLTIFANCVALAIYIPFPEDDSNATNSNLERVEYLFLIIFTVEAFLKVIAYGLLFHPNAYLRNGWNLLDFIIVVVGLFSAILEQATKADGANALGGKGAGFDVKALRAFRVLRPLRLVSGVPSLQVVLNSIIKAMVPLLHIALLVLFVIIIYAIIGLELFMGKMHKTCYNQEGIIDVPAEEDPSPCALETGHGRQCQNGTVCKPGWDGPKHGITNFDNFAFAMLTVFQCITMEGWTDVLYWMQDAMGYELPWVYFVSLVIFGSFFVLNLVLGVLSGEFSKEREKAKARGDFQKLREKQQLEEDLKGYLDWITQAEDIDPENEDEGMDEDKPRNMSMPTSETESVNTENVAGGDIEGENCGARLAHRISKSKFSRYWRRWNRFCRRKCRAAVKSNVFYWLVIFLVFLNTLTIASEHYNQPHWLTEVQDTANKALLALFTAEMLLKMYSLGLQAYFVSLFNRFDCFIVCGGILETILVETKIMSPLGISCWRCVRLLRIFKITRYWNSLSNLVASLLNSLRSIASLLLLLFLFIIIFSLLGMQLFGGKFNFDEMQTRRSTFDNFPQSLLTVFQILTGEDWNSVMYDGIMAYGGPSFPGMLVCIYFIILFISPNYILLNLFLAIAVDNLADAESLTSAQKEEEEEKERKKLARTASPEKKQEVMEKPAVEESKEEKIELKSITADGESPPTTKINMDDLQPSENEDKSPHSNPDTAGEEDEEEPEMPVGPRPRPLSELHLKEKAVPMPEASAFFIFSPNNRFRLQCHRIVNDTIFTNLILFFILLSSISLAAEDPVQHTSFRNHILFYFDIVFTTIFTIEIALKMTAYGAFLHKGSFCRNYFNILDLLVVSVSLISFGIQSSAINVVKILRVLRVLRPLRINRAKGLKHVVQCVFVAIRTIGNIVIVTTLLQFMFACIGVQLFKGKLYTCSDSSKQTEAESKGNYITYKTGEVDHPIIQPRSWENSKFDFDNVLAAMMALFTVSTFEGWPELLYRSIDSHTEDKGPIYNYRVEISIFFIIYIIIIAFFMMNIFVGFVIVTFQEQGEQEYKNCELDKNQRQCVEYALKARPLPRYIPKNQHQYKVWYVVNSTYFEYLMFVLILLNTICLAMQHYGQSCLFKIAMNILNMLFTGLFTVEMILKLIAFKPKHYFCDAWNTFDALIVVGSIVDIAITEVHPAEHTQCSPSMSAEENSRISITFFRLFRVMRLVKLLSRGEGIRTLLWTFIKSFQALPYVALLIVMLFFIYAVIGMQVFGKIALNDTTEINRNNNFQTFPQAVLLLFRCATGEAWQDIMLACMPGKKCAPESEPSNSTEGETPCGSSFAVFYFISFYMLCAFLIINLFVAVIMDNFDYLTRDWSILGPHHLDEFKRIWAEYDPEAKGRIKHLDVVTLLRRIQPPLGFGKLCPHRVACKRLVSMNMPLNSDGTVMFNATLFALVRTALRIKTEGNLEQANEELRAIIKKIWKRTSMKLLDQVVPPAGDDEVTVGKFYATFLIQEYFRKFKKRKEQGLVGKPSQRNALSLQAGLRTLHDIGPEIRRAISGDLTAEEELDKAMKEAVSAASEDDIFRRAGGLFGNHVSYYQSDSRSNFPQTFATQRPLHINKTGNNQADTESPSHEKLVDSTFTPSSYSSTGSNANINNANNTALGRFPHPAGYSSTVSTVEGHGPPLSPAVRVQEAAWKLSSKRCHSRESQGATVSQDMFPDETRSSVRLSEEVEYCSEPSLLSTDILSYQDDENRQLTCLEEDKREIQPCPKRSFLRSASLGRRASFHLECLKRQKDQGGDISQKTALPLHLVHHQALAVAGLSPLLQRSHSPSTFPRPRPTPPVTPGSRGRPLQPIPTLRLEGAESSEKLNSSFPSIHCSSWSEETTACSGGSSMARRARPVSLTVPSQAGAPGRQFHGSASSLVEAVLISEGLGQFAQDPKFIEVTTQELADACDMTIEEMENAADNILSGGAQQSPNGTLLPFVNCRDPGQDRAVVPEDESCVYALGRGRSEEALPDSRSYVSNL
T2 sequence (P54290 25-944 partner limits assumed): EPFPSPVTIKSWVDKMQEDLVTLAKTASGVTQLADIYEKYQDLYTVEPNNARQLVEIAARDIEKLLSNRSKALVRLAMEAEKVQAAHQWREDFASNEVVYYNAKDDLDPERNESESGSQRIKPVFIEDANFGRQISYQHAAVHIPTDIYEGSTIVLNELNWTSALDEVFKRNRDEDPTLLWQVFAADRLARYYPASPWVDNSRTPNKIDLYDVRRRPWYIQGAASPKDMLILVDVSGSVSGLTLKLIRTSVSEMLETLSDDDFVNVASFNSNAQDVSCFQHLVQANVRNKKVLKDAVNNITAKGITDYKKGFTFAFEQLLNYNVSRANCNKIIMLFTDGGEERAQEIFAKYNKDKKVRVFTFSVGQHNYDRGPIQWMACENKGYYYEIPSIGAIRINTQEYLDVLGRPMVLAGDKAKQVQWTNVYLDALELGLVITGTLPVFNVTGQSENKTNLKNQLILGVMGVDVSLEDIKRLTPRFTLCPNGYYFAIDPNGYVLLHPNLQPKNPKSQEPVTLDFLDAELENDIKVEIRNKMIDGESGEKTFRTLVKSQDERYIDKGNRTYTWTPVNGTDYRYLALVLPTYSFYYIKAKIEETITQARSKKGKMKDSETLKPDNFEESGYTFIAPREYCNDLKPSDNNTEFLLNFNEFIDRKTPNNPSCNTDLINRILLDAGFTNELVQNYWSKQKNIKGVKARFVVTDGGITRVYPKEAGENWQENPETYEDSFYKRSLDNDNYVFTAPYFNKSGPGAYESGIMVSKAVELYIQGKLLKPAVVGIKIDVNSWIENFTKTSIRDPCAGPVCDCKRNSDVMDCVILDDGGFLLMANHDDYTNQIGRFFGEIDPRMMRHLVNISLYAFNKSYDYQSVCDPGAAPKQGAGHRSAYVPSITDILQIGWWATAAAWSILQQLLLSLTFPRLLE
T2 sequence (P54290 945-1091 partner limits assumed): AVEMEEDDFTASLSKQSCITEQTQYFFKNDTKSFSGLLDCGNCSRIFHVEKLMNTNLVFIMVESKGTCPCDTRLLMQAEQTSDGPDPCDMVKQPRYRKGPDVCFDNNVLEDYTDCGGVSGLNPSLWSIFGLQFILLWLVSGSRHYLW
T2 sequence (P54287 whole entry partner): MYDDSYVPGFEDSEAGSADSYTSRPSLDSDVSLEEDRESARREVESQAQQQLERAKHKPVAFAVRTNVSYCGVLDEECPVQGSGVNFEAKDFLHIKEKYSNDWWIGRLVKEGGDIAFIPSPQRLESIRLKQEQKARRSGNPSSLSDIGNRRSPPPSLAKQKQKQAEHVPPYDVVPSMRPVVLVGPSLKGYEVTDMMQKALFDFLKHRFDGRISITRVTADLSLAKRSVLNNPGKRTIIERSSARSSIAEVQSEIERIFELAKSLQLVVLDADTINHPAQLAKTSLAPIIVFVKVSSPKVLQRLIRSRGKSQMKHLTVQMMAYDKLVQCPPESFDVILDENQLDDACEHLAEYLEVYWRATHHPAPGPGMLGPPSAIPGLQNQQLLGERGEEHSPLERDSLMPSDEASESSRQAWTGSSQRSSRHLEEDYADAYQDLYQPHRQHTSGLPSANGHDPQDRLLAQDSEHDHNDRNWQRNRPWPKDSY
Protocol: Measurement of L-type Ca^2+ Channel Blocking Potencies of Compounds in A10 Cells
Calcium flux through voltage-sensitive calcium channels was assessed by time-resolved monitoring of the fluorescence of pre-loaded calcium-sensitive dyes using FLIPR, a fluorescent image plate reader (Molecular Devices Co.). The A10 smooth muscle cell line derived from embryonic thoracic aorta of the DBIX rat (ATCC, CRL-1476) which endogenously expresses L-type calcium channels. The growth media for A10 cells was Ham's F12/DME high glucose (Irvine Scientific, 9052), supplemented with 20% fetal bovine serum (HyClone Labs, A-1115-L), and 1% each of L-glutamine and antibiotic-antimycotic (same source as above).
Cells were grown to confluency and replated on black-sided 96-well plates (Costar, 3603) for use in FLIPR. Two days after replating, growth media was removed and cells were loaded at 37° C. with 100 μL media containing 1 μM Oregon Green 488 Bapta-1 dye (Molecular Probes, O-6807) for 1 to 3 hours. The dye-containing media was then washed away with buffer (composition in mM: 1.25 CaCl2, 1.2 MgSO4, 11 glucose, 10 HEPES, 3.0 KCl, 137.0 NaCl, pH 7.4 with Tris base) in a Denley Cellwash (Labsystems, CW018B). The residual buffer volume was adjusted to 50 μL. A 5 minute drug-pre-incubation period at 35° C. was initiated when 50 μL of drug-containing buffer was pipetted into the cell plate with the 96-well pipettor integrated in the FLIPR apparatus. Fluorescent counts were monitored at 20 second intervals for 360 seconds, beginning 60 seconds prior to the delivery of drug-containing buffer. Following drug addition, 100 μL aliquots of a high K^+, depolarizing stimulus (composition in mM: 1.25 CaCl2, 1.2 MgSO4, 11 glucose, 10 HEPES, 140.0 KCl, pH 7.4 with Tris base) were added to each well, and fluorescence was monitored at 1 second intervals for 120 seconds beginning 10 seconds prior to the stimulus addition. CCD camera exposure time was 0.4 seconds, laser excitation was at 488 nm with a power of 0.2-0.5W, and a 510 to 560 nm bandpass interference filter preceded the camera.
Data was analyzed as a summation of fluorescent counts above basal during the stimulation period (an approximation of area under the curve), after normalizing the data with a spatial uniformity correction (for variations in laser illumination and cell density) and a negative control correction (zero calcium increase defined as the fluorescence reading in the presence of saturating pharmacologic block of the respective calcium channel). Drug effects were expressed as percent inhibition of fluorescence from an average of 8 K^+-stimulated wells which were pre-treated in the drug incubation period with buffer only. In the A10 cells, the pharmacologic agent used to define zero calcium influx was nitrendipine (RBI, N-144) at a final concentration of 1.0×10^−6 M.

| SMILES | IC50 [1] [nM] | IC50 [3] [nM] | melting point [°C] | inhibition at 1 µM [1] [%] | inhibition at 10 µM [1] [%] | responders at 30 mg/kg ([2]; 0.25 h, 15 min posttreatment) [%] | responders at 30 mg/kg ([2]; 0.75 h, 45 min posttreatment) [%] | responders at 10 mg/kg ([2]; 0.25 h, 15 min posttreatment) [%] | responders at 10 mg/kg ([2]; 0.75 h, 45 min posttreatment) [%] |
| --- | --- | --- | --- | --- | --- | --- | --- | --- | --- |
| CC(C)C[C@H](NC1CCCCC1)C(=O)N1CCN(C(c2ccc(F)cc2)c2ccc(F)cc2)CC1 [Example 38, (S)-1-{4-[Bis-(4-fluoro-phenyl)-methyl]-piperazin-1-yl}-2-cyclohexylamino-4-methyl-pentan-1-one] | 1200 | 610 | – | – | – | 80 | 20 | – | – |
| CC(C)CCN(C)[C@@H](CC(C)C)C(=O)N1CCN(C(c2ccc(F)cc2)c2ccc(F)cc2)CC1 [Example 46, 1-{4-[Bis-(4-fluoro-phenyl)-methyl]-piperazin-1-yl}-4-methyl-2-[methyl-(3-methyl-butyl)-amino]-pentan-1-one dihydrochloride] | 330 | 1800 | – | – | – | – | – | 80 | 20 |
| CC(C)(C)OC(=O)N[C@@H](Cc1ccccc1)C(=O)N1CCN(C(c2ccc(F)cc2)c2ccc(F)cc2)CC1 [Example 51, (S)-(1-Benzyl-2-{4-[bis-(4-fluoro-phenyl)-methyl]-piperazin-1-yl}-2-oxo-ethyl)-carbamic acid tert-butyl ester] | 250 | 710 | 54 to 74 | – | – | – | – | – | – |
| N[C@@H](Cc1ccccc1)C(=O)N1CCN(C(c2ccc(F)cc2)c2ccc(F)cc2)CC1 [Example 52, (S)-2-Amino-1-(4-[bis-(4-fluoro-phenyl)-methyl]-piperazin-1-yl}-3-phenyl-propan-1-one] | – | 430 | – | 23 | 99 | 100 | 80 | – | – |
| CC(C)C[C@H](N)C(=O)N1CCN(C(c2ccc(F)cc2)c2ccc(F)cc2)CC1 [Example 53, (S)-2-Amino-1-{4-[bis-(4-fluoro-phenyl)-methyl]-piperazin-1-yl}-4-methyl-pentan-1-one] | – | 420 | 61 to 68 | 22 | 78 | – | – | – | – |
| CC(C)C[C@@H](C(=O)N1CCN(C(c2ccc(F)cc2)c2ccc(F)cc2)CC1)N(Cc1ccc(OC(C)(C)C)cc1)Cc1ccc(OC(C)(C)C)cc1 [Example 57, (S)-2-[Bis-(4-tert-butoxy-benzyl)-amino]-1-{4-[bis-(4-fluoro-phenyl)-methyl]-piperazin-1-yl}-4-methyl-pentan-1-one] | – | > 3000 | 62 to 67 | – | 7 | – | – | – | – |
| CC(C)C[C@@H](C(=O)N1CCN(C(c2ccc(F)cc2)c2ccc(F)cc2)CC1)N(Cc1ccc(C(C)(C)C)cc1)Cc1ccc(C(C)(C)C)cc1 [Example 59, (S)-2-[Bis-(4-tert-butyl-benzyl)-amino]-1-{-4-[bis-(4-fluoro-phenyl)-methyl]-piperazin-1-yl}-4-methyl-pentan-1-one] | – | > 3000 | 78 to 86 | -5 | 2 | – | – | – | – |
| COc1cc(CN[C@@H](CC(C)C)C(=O)N2CCN(C(c3ccc(F)cc3)c3ccc(F)cc3)CC2)cc(OC)c1OC [Example 60, (S)-1-{4-[Bis-(4-fluoro-phenyl)-methyl]-piperazin-1-yl}-4-methyl-2-(3,4,5-trimethoxy-benzylamino)-pentan-1-one] | – | 220 | 58 to 62 | 26 | 95 | – | – | – | – |
| O=C([C@H](Cc1ccccc1)NC1CCCCC1)N1CCN(C(c2ccc(F)cc2)c2ccc(F)cc2)CC1 [Example 61, (S)-1-{4-[Bis-(4-fluoro-phenyl)-methyl]-piperazin-1-yl}-2-cyclohexylamino-3-phenyl-propan-1-one] | – | 1700 | 60 to 64 | 42 | 102 | – | – | – | – |

The next lines start with results.

| IC50 [1] [nM] | IC50 [3] [nM] | melting point [°C] | inhibition at 1 µM [1] [%] | inhibition at 10 µM [1] [%] | SMILES | responders at 30 mg/kg ([2]; 0.25 h, 15 min posttreatment) [%] | responders at 30 mg/kg ([2]; 0.75 h, 45 min posttreatment) [%] | responders at 10 mg/kg ([2]; 0.25 h, 15 min posttreatment) [%] | responders at 10 mg/kg ([2]; 0.75 h, 45 min posttreatment) [%] |
| --- | --- | --- | --- | --- | --- | --- | --- | --- | --- |
| 700 | 500 | – | – | – | CC(C)C[C@@H](C(=O)N1CCN(C(c2ccc(F)cc2)c2ccc(F)cc2)CC1)N(C)C1CCCCC1 [Example 40, (S)-1-{4-[Bis-(4-fluoro-phenyl)-methyl]-piperazin-1-yl}-2-(cyclohexyl-methyl-amino)-4-methyl-pentan-1-one] | 0 | 0 | – | – |
| 1200 | 1700 | 66 to 74 | – | – | CC(C)C[C@H](NC(=O)N1CCCCCC1)C(=O)N1CCN(C(c2ccccc2)c2ccccc2)CC1 [Example 48, (S)-Azepane-1-carboxylic acid [1-(4-benzhydryl-piperazine-1-carbonyl)-3-methyl-butyl]-amide] | – | – | – | – |
| 550 | 950 | 59 to 66 | – | – | CC(C)C[C@H](NC(=O)OC(C)(C)C)C(=O)N1CCN(C(c2ccc(F)cc2)c2ccc(F)cc2)CC1 [Example 50, (S)-(1-{4-[Bis-(4-fluoro-phenyl)-methyl]-piperazine-1-carbonyl}-3-methyl-butyl)-carbamic acid tert-butyl ester] | – | – | – | – |
| – | 1300 | 45 to 58 | 25 | 99 | CC(C)N[C@@H](Cc1ccccc1)C(=O)N1CCN(C(c2ccc(F)cc2)c2ccc(F)cc2)CC1 [Example 54, (S)-1-{4-[Bis-(4-fluoro-phenyl)-methyl]-piperazin-1-yl}-2-isopropylamino-3-phenyl-propan-1-one] | – | – | – | – |
| – | 940 | 172 to 186 | – | 104 | CC(C)CCN[C@@H](Cc1ccccc1)C(=O)N1CCN(C(c2ccc(F)cc2)c2ccc(F)cc2)CC1.Cl [Example 55, (S)-1-{4-[Bis-(4-fluoro-phenyl)-methyl]-piperazin-1-yl}-2-(3-methyl-butylamino)-3-phenyl-propan-1-one dihydrochloride] | – | – | – | – |
| – | > 3000 | 139 to 181 | 16 | 37 | CC(C)CCN(CCC(C)C)[C@@H](Cc1ccccc1)C(=O)N1CCN(C(c2ccc(F)cc2)c2ccc(F)cc2)CC1.Cl [Example 56, (S)-1-{4-[Bis-(4-fluoro-phenyl)-methyl]-piperazin-1-yl}-2-[bis-(3-methyl-butyl)-amino]-3-phenyl-propan-1-one dihydrochloride] | – | – | – | – |
